The structures appear in SMILES notation. Some results are limits rather than exact numbers.

Consider 19 compounds from patent US20240158392A1 (Janssen Biotech, Inc., priority 2021, published 2024).

Chain of SIK2 (Q9H0K1 whole entry, species assumed): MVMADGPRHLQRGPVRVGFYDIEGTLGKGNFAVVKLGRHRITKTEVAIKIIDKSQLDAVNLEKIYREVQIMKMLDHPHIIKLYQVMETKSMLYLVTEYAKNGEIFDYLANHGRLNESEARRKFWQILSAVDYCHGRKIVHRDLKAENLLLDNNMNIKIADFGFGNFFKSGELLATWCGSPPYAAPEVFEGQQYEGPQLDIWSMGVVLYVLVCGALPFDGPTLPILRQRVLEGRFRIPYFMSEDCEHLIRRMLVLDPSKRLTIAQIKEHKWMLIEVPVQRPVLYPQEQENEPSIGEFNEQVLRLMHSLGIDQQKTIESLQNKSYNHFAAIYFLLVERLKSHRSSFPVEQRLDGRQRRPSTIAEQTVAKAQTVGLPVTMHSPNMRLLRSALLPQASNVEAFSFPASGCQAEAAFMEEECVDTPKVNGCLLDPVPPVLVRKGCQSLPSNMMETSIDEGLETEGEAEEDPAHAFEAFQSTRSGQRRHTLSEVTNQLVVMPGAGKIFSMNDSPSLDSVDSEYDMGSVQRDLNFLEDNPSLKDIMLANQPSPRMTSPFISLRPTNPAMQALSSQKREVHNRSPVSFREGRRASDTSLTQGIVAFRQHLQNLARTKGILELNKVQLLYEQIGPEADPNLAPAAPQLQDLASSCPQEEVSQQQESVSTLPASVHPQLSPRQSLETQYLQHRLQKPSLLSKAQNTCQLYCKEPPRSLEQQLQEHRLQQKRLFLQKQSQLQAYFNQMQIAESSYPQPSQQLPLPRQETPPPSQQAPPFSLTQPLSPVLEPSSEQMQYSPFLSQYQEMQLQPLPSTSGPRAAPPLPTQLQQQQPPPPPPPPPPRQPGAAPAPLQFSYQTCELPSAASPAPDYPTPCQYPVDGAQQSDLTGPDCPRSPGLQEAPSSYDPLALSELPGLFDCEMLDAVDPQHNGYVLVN

One experiment addresses SIK2 (Homo sapiens, UniProt Q9H0K1). The experiment in a line: SIK2 Enzymatic Assay High Version 2 (High ATP).
Conditions: not given
The class given is biochemical. In outline: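 At room temperature, enzyme (6 nM, 2× final) was preincubated with compound for 30 min, then 6 mM ATP and 400 μM HDAC5tide (both 2× final) were added for 2 h. ADP formed was measured by ADP-Glo Max (2 h reagent, 1 h detection) using luminescence.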
With `CCNC(=O)c1cnc(Nc2cc3cc(-c4cc(C)ncc4O[C@H]4C[C@H]5COC[C@@H](C4)N5)ccn3n2)cn1` [Example 386, N-ethyl-5-[[5-[2-methyl-5-[[(1S,5R,7s)-3-oxa-9-azabicyclo[3.3.1]nonan-7-yl]oxy]-4-pyridyl]pyrazolo[1,5-a]pyridin-2-yl]amino]pyrazine-2-carboxamide], the IC50 was found to be 0.00131 µM.
`Cc1cc(-c2ccn3nc(Nc4cc(C)nc(C)n4)cc3c2)c(OC[C@@H]2COC(=O)N2)cn1` [Example 342, (4R)-4-[[4-[2-[(2,6-dimethylpyrimidin-4-yl)amino]pyrazolo[1,5-a]pyridin-5-yl]-6-methyl-3-pyridyl]oxymethyl]oxazolidin-2-one] came in with a 50% inhibitory concentration (IC50) of 0.032 µM.
As for `Cc1cc(-c2ccn3nc(Nc4cc(C)nc(C)n4)cc3c2)c(O[C@H]2C[C@H]3COC[C@@H](C2)N3C#N)cn1` [Example 336, (1S,5R)-7-[[4-[2-[(2,6-dimethylpyrimidin-4-yl)amino]pyrazolo[1,5-a]pyridin-5-yl]-6-methyl-3-pyridyl]oxy]-3-oxa-9-azabicyclo[3.3.1]nonane-9-carbonitrile], the IC50 is under 0.000847 µM.
Same read-out and setting: the value for `CC[C@@H]1NC[C@@H]1Oc1cnc(C)cc1-c1ccn2nc(NC(=O)C3CC3)cc2c1` (relative stereo) [Example 453, (*S, *S)—N-[5-[5-(2-ethylazetidin-3-yl)oxy-2-methyl-4-pyridyl]pyrazolo[1,5-a]pyridin-2-yl]cyclopropanecarboxamide] was 0.0334 µM.
Still for that read-out and setting: the value for `Cc1cc(-c2ccn3nc(Nc4cn(C)nn4)cc3c2)c(O[C@H]2C[C@H]3COC[C@@H](C2)N3)cn1` [Example 380, 5-[2-methyl-5-[[(1R,5S,7s)-3-oxa-9-azabicyclo[3.3.1]nonan-7-yl]oxy]-4-pyridyl]-N-(1-methyltriazol-4-yl)pyrazolo[1,5-a]pyridin-2-amine] was under 0.000847 µM.

The same experiment, now with this note: enzyme 6 nM, 6 mM ATP and 400 μM HDAC5tide (each 2× final concentration); 30 minutes pre-incubation, 2 hours; ADP-Glo Max luminescence; read-out: SIK2 high ATP IC50 (μM) (Test Example 2).
With `Cc1cc(-c2ccn3nc(Nc4cc(C)nc(C)n4)cc3c2)c(OC[C@@](C)(O)C(F)(F)F)cn1` (single isomer, unassigned) [Example 264, (*R)-3-[[4-[2-[(2,6-dimethylpyrimidin-4-yl)amino]pyrazolo[1,5-a]pyridin-5-yl]-6-methyl-3-pyridyl]oxy]-1,1,1-trifluoro-2-methyl-propan-2-ol], the half-inhibitory concentration (IC50) was determined as 0.0348 µM.
On the same count and under the same terms, the same measure for `COc1cc(Nc2cc3cc(-c4cc(C)ncc4OCC(C)(C)O)ccn3n2)ccc1C(=O)NC1CC1` [Example 643, N-cyclopropyl-4-[[5-[5-(2-hydroxy-2-methyl-propoxy)-2-methyl-4-pyridyl]pyrazolo[1,5-a]pyridin-2-yl]amino]-2-methoxy-benzamide]: 0.157 µM.
For the compound `CO[C@H]1CN(C)C[C@@H]1COc1cnc(C)cc1-c1ccn2nc(NC(=O)C3CC3)cc2c1` (single isomer, unassigned) [Example 461, Trans-*R, *R—N-[5-[5-[(4-methoxy-1-methyl-pyrrolidin-3-yl)methoxy]-2-methyl-4-pyridyl]pyrazolo[1,5-a]pyridin-2-yl]cyclopropanecarboxamide], the IC50 is under 0.000847 µM.
Still for that read-out and setting: the same measure for `Cc1cc(Nc2cc3cc(-c4cc(OCC(F)F)ncc4OCC(C)(C)C#N)ccn3n2)nn(C2CC2)c1=O` [Example 730, 3-[[4-[2-[(1-cyclopropyl-5-methyl-6-oxo-pyridazin-3-yl)amino]pyrazolo[1,5-a]pyridin-5-yl]-6-(2,2-difluoroethoxy)-3-pyridyl]oxy]-2,2-dimethyl-propanenitrile]: 0.0154 µM; for `CC(C)(C#N)COc1cnc(OC(F)F)cc1-c1ccn2nc(Nc3cc(N)cnn3)cc2c1` [Example 704, 3-[[4-[2-[(5-aminopyridazin-3-yl)amino]pyrazolo[1,5-a]pyridin-5-yl]-6-(difluoromethoxy)-3-pyridyl]oxy]-2,2-dimethyl-propanenitrile]: 0.0206 µM.
On the same count and under the same terms, the same measure for `CC(C)(C#N)COc1cnc(OC(F)F)cc1-c1ccn2nc(Nc3cnc(C(C)(C)O)cn3)cc2c1` [Example 713, 3-[[6-(difluoromethoxy)-4-[2-[[5-(1-hydroxy-1-methyl-ethyl)pyrazin-2-yl]amino]pyrazolo[1,5-a]pyridin-5-yl]-3-pyridyl]oxy]-2,2-dimethyl-propanenitrile]: 0.00746 µM; for `Cc1cc(-c2ccn3nc(NC(=O)C4CC4)cc3c2)c(O[C@@H]2CCC[C@H](O)C2)cn1` (single isomer, unassigned) [Example 602, (1*R, 3*S)—N-[5-[5-(3-hydroxycyclohexoxy)-2-methyl-4-pyridyl]pyrazolo[1,5-a]pyridin-2-yl]cyclopropanecarboxamide]: 0.113 µM; for `Cc1cc(Nc2cc3cc(-c4cc(OC(F)F)ncc4OC[C@@H]4CNCCO4)ccn3n2)nc(C)n1` [Example 502, 5-[2-(difluoromethoxy)-5-[[(2S)-morpholin-2-yl]methoxy]-4-pyridyl]-N-(2,6-dimethylpyrimidin-4-yl)pyrazolo[1,5-a]pyridin-2-amine]: 0.00682 µM.
Turning to `Cc1cc(-c2ccn3nc(Nc4cc(C)nc(C)n4)cc3c2)c(OCC2(CO)COC2)cn1` [Example 274, [3-[[4-[2-[(2,6-dimethylpyrimidin-4-yl)amino]pyrazolo[1,5-a]pyridin-5-yl]-6-methyl-3-pyridyl]oxymethyl]oxetan-3-yl]methanol], the 50% inhibitory concentration (IC50) was 0.0291 µM.
Same read-out and setting: the same measure for `Cc1cc(Nc2cc3cc(-c4cc(OC(F)F)ncc4OCC(C)(N)C(F)(F)F)ccn3n2)nc(C)n1` (single isomer, unassigned) [Example 756, (*S)-5-[5-(2-amino-3,3,3-trifluoro-2-methyl-propoxy)-2-(difluoromethoxy)-4-pyridyl]-N-(2,6-dimethylpyrimidin-4-yl)pyrazolo[1,5-a]pyridin-2-amine]: 0.275 µM.
Same read-out and setting: the same measure for `Cn1cnc(Nc2cc3cc(-c4cc(OC(F)F)ncc4OCC(C)(C)C#N)ccn3n2)n1` [Example 699, 3-[[6-(difluoromethoxy)-4-[2-[(1-methyl-1,2,4-triazol-3-yl)amino]pyrazolo[1,5-a]pyridin-5-yl]-3-pyridyl]oxy]-2,2-dimethyl-propanenitrile]: 0.0111 µM; for `COc1cc(Nc2cc3cc(-c4cc(C)ncc4O[C@H]4CC[C@H](O)CC4)ccn3n2)cc(OC)c1C(=O)NCC(F)(F)F` [Example 241, 4-[[5-[5-(4-hydroxycyclohexoxy)-2-methyl-4-pyridyl]pyrazolo[1,5-a]pyridin-2-yl]amino]-2,6-dimethoxy-N-(2,2,2-trifluoroethyl)benzamide]: 0.0401 µM.
Same read-out and setting: the same measure for `Cc1cc(-c2ccn3nc(NC(=O)C4CC4)cc3c2)c(OC[C@@]2(C)CCN2C)cn1` (single isomer, unassigned) [Example 604, (*R)—N-[5-[5-[(1,2-dimethylazetidin-2-yl)methoxy]-2-methyl-4-pyridyl]pyrazolo[1,5-a]pyridin-2-yl]cyclopropanecarboxamide]: 0.203 µM.
For the compound `Cc1cc(Nc2cc3cc(-c4cc(OC(F)F)ncc4OC[C@@H]4CC(=O)NC4(C)C)ccn3n2)nc(C)n1` (single isomer, unassigned) [Example 738, (*R)-4-[[6-(difluoromethoxy)-4-[2-[(2,6-dimethylpyrimidin-4-yl)amino]pyrazolo[1,5-a]pyridin-5-yl]-3-pyridyl]oxymethyl]-5,5-dimethyl-pyrrolidin-2-one], the concentration for half-maximal inhibition (IC50) was 0.00304 µM.

Broadly, the IC50 is the concentration needed to halve the response being measured.
